Experimental findings from paper PMC11684895 (Briefings in Bioinformatics, 2024) are described below.

One test addresses DNA gyrase subunit GyrB (Mycobacterium tuberculosis, UniProt P9WG45). Kind of test: SPR. The format is binding.
Another test addresses DNA gyrase subunit GyrA (Mycobacterium tuberculosis, UniProt P9WG47). Briefly: SPR. It is filed as binding.

Sequence of DNA gyrase subunit GyrB (P9WG45 whole entry): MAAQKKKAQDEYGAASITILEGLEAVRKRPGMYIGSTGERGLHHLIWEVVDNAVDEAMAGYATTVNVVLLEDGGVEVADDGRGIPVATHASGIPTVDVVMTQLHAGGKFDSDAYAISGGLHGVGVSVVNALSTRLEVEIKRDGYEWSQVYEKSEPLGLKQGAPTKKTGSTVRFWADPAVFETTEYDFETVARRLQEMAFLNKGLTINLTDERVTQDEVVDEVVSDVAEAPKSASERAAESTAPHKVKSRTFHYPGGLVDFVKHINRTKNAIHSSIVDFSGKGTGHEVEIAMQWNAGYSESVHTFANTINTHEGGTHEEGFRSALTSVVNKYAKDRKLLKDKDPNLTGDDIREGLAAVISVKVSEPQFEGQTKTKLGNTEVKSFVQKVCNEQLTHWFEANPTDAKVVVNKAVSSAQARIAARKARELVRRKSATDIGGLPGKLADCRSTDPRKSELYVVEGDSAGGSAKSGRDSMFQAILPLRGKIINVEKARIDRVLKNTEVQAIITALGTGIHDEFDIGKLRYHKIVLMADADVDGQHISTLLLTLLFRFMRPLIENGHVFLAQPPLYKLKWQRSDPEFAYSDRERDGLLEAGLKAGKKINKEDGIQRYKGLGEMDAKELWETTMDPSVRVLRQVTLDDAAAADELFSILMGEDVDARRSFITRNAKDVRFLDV
Sequence of DNA gyrase subunit GyrA (P9WG47 2-838): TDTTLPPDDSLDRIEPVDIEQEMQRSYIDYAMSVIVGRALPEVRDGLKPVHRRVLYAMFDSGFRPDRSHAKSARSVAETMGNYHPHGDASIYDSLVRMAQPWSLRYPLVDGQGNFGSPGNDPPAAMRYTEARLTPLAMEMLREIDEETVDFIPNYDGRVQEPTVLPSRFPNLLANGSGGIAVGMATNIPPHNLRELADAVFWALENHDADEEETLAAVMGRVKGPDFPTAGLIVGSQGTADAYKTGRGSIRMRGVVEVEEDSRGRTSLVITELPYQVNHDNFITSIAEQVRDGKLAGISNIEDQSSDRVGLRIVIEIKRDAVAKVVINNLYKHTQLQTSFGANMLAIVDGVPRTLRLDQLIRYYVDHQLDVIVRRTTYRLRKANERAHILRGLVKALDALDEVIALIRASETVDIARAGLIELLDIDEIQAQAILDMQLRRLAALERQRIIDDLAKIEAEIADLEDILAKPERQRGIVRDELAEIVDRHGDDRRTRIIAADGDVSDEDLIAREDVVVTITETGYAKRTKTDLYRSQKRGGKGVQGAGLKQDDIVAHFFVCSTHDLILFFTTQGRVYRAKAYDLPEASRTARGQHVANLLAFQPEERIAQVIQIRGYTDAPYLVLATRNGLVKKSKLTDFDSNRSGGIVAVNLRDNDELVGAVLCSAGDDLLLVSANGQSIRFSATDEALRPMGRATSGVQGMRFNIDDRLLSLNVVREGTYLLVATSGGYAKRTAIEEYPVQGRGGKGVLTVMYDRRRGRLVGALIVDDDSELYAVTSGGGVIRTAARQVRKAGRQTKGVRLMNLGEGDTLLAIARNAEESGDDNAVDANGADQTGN

One may read the Kd as the equilibrium constant for the complex coming apart. A high value points to a looser complex. Turning to `COc1cccc2c1C(=O)c1c(O)c3c(c(O)c1C2=O)C[C@@](O)(/C(CO)=N/NC(=O)CCCCCN1C(=O)C=CC1=O)C[C@@H]3O[C@H]1C[C@H](N)[C@H](O)[C@H](C)O1` [aldoxorubicin], the Kd amounted to 324 nM at DNA gyrase subunit GyrB and 400 nM at DNA gyrase subunit GyrA.
Take `CN1CCC[C@H]1CCNC(=O)c1cn2c3c(c(N4CCC(c5cnccn5)C4)c(F)cc3c1=O)Oc1cc3ccccc3cc1-2` (stereo partly shown) [quarfloxin]: the Kd was 30100 nM on DNA gyrase subunit GyrB and 2890 nM at DNA gyrase subunit GyrA.
